ChEMBL document CHEMBL5331145, “Discovery of a Novel Bifunctional Steroid Analog, YXG-158, as an Androgen Receptor Degrader and CYP17A1 Inhibitor for the Treatment of Enzalutamide-Resistant Prostate Cancer” (J Med Chem, 2023)
Calls of active or inactive are those of the source. The rule behind the calls is not given here.

Key:
[1] = target: T1, Androgen receptor (Homo sapiens) (UniProt P10275); test: Potency index, ratio of galeterone DC50 to test compound DC50 for induction of androgen receptor degradation in human LNCaP cells; type: cell-based
T1 sequence (whole entry): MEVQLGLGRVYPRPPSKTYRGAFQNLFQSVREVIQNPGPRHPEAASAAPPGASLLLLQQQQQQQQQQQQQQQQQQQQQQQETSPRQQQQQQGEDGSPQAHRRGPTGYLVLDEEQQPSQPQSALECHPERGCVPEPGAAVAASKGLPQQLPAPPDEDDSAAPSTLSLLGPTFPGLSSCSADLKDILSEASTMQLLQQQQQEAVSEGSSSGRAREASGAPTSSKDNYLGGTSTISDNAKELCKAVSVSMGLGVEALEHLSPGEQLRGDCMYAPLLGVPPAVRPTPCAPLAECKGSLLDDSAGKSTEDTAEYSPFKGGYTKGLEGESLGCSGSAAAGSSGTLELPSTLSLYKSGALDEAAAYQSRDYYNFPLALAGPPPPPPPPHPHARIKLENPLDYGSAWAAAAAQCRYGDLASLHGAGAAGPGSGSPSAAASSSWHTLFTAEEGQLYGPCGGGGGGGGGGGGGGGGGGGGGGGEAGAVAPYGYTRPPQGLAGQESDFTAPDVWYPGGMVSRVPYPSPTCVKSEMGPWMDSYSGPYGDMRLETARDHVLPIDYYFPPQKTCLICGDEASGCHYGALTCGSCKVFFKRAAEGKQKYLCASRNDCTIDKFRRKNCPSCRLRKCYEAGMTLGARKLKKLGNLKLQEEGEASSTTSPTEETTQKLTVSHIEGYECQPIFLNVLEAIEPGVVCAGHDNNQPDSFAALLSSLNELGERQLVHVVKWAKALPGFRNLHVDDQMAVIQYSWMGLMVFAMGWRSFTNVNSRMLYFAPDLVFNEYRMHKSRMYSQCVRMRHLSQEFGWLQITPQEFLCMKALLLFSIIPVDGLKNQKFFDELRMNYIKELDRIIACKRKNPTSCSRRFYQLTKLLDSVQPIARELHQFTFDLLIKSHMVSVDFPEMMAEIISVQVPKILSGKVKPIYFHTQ

Androgen receptor = target: T2, Androgen receptor (Homo sapiens, UniProt P10275); test: Induction of androgen receptor degradation in human LNCaP cells incubated for 24 hrs by ELISA; type: cell-based
T2 sequence (P10275 whole entry): T1 sequence (whole entry)

[2] = target: Voltage-gated inwardly rectifying potassium channel KCNH2 (Homo sapiens, UniProt Q12809); test: Inhibition of human ERG by patch clamp assay; type: toxicity
Voltage-gated inwardly rectifying potassium channel KCNH2, sequence (Q12809 whole entry): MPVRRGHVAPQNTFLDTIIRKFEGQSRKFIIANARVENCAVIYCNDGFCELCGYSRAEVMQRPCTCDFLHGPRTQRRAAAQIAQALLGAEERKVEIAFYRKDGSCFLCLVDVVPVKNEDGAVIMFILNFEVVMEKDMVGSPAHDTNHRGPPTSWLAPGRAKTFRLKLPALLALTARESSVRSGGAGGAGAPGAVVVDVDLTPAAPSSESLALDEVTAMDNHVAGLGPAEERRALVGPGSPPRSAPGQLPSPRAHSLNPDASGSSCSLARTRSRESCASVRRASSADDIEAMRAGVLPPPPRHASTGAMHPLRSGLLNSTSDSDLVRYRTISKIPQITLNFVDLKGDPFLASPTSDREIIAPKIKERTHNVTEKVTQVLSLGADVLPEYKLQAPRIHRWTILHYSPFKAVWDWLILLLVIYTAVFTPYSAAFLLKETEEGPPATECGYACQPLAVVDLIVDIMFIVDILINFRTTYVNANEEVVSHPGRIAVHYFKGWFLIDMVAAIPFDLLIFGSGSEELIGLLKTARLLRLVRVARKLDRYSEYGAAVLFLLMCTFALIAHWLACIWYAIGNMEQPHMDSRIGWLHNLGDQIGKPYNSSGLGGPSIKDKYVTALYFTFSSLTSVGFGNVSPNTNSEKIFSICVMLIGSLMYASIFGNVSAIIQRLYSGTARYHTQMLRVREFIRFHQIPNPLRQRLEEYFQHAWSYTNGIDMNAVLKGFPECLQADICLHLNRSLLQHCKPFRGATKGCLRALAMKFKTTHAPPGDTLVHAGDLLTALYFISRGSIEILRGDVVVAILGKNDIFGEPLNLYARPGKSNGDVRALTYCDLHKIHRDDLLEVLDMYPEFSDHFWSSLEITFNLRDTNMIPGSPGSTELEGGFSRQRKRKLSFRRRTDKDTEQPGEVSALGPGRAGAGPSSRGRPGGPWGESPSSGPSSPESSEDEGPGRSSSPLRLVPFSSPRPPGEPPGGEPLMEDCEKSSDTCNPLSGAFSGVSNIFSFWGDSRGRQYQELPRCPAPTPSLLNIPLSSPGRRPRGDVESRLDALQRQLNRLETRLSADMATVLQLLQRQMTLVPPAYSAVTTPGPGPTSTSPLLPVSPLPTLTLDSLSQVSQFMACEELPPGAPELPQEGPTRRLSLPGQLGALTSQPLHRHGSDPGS

LNCaP = test: Antiproliferative activity against human LNCaP cells incubated for 6 days by CellTiter-Glo assay; type: functional, cell-based
LNCaP/AR = test: Antitumor activity against human LNCaP/AR cells xenografted in SCID male mouse assessed as tumor growth inhibition at 30 mg/kg, po administered once daily for 28 days and measured every 3 days; type: functional, organism-based; conditions: time 28.0 day
[3] = target: T1, Androgen receptor (Homo sapiens); test: Induction of androgen receptor degradation in human LNCaP cells incubated for 24 hrs by Western blot analysis; type: cell-based; conditions: dose 1-20 µM
[4] = target: T1, Androgen receptor (Homo sapiens); test: Induction of androgen receptor degradation in human VCaP cells incubated for 24 hrs by Western blot analysis; type: cell-based; conditions: dose 1-20 µM
[5] = target: Androgen receptor (Homo sapiens) (UniProt P10275); test: In vivo induction of androgen receptor in human LNCaP/AR cells xenografted in SCID mouse assessed as reduction in AR protein level at 30 mg/kg, po administered once daily for 28 days by ELISA; parameters: scale not given: the % may be the effect or the level left; conditions: time 28.0 day
[6] = target: T1, Androgen receptor (Homo sapiens); test: Induction of androgen receptor degradation in human LNCaP cells at 20 uM incubated for 24 hrs in presence of MG-132; type: cell-based
[7] = target: T1, Androgen receptor (Homo sapiens); test: Induction of androgen receptor degradation in human 22Rv1 cells incubated for 24 hrs by Western blot analysis; type: cell-based; conditions: dose 1-20 µM
[8] = tested on: Androgen receptor (Homo sapiens), P10275 [F877L]; test: Antagonist activity at androgen receptor F876L mutant expressed in HEK293 cells assessed as reduction in DHT-induced transcriptional activation of androgen receptor incubated for 24 hrs by Steady-Glo assay relative to control; type: cell-based; parameters: scale not given: the % may be the effect or the level left; conditions: filed as antagonist
Androgen receptor (Homo sapiens), P10275 [F877L], sequence (P10275 whole entry F877L): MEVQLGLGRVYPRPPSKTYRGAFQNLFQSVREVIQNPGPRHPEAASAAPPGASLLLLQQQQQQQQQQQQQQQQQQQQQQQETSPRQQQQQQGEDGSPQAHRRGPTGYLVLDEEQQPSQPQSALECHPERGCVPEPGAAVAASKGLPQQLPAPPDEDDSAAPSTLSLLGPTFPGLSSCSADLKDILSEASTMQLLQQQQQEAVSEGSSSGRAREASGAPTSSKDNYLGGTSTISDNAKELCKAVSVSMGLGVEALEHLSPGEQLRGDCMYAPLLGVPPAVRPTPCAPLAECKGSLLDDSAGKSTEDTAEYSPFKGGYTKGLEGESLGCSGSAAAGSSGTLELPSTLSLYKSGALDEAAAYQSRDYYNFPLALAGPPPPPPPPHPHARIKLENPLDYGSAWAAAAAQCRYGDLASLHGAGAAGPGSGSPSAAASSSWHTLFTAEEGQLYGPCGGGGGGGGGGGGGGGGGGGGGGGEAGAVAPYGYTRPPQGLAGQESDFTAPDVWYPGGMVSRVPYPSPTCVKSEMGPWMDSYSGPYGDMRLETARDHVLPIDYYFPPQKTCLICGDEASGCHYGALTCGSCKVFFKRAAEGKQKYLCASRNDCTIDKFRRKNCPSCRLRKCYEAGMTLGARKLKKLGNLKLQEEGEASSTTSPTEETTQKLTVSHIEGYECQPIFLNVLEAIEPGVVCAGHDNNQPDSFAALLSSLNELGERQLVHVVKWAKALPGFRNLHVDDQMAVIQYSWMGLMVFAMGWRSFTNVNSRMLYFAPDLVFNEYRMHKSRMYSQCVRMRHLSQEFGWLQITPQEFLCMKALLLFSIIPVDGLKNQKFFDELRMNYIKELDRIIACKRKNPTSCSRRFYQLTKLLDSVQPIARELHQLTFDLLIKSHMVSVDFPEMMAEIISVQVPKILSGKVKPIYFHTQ

[9] = target: T1, Androgen receptor (Homo sapiens); test: Induction of androgen receptor degradation in human LNCaP cells assessed as reduction in AR mRNA level incubated for 24 hrs by qPCR analysis; type: cell-based; conditions: dose 1-20 µM
[10] = target: Androgen receptor (Homo sapiens) (UniProt P10275); test: In vivo induction of androgen receptor in human LNCaP/AR cells xenografted in SCID mouse assessed as reduction in AR protein level at 10 mg/kg, po administered once daily for 28 days by ELISA; parameters: scale not given: the % may be the effect or the level left; conditions: time 28.0 day
22Rv1 = test: Induction of androgen receptor splice variant 7 degradation in human 22Rv1 cells at 1 to 20 uM incubated for 24 hrs by Western blot analysis; type: cell-based; conditions: dose 1-20 µM
[11] = target: T1, Androgen receptor (Homo sapiens); test: Induction of androgen receptor degradation in human LNCaP cells at 20 uM incubated for 24 hrs; type: cell-based
Mus musculus = test: In vivo induction of androgen receptor in human LNCaP/AR cells xenografted in SCID mouse assessed as reduction in PSA level at 10 to 30 mg/kg, po administered once daily for 28 days by ELISA; type: functional, organism-based; conditions: dose 10-30 mg/kg, time 28.0 day
LNCaP C4-2B = test: Antitumor activity against enzalutamide resistant human LNCaP C4-2B cells xenografted in BALB/c mouse assessed as tumor growth suppression at 10 mg/kg, po administered once daily for 28 days and measured every 3 days; type: functional, organism-based; conditions: time 28.0 day

With `Cc1cn(C2=CCC3C4CC=C5C[C@@H](NC(=O)c6ccc([N+](=O)[O-])cc6)CC[C@]5(C)C4CC[C@]23C)cn1` (some centres not stated) the Ratio [1] was 2.5, the EC50 (Androgen receptor) was 2600 nM and the IC50 [2] was over 40000 nM. For the same molecule, the IC50 (LNCaP) was 595 nM.

For `C[C@]12CC[C@H](NC(=O)c3ccnnc3)CC1=CCC1C2CC[C@]2(C)C(n3cnc(C#N)c3)=CCC12` (some centres not stated), the IC50 [2] was 2870 nM and the IC50 (LNCaP) was 471 nM.

Molecule `CC(C)(C)c1cn(C2=CCC3C4CC=C5C[C@@H](NC(=O)c6ccnnc6)CC[C@]5(C)C4CC[C@]23C)cn1` (some centres not stated) has an IC50 (LNCaP) of 1120 nM.

`Cc1cn(C2=CCC3C4CC=C5C[C@@H](NC(=O)c6ncccn6)CC[C@]5(C)C4CC[C@]23C)cn1` (some centres not stated) was tested, and the IC50 (LNCaP) was 2420 nM.

Work on `COC(=O)c1cn(C2=CCC3C4CC=C5C[C@@H](NC(=O)c6ccnnc6)CC[C@]5(C)C4CC[C@]23C)cn1` (some centres not stated) yielded an IC50 (LNCaP) of 1960 nM.

In the case of `Cc1cn(C2=CCC3C4CC=C5C[C@@H](NS(=O)(=O)c6ccc([N+](=O)[O-])cc6)CC[C@]5(C)C4CC[C@]23C)cn1` (some centres not stated), the IC50 (LNCaP) is reported as 3440 nM.

`Cc1cn(C2=CCC3C4CC=C5C[C@@H](NC(=O)c6ccc(C#N)cc6)CC[C@]5(C)C4CC[C@]23C)cn1` (some centres not stated) was tested, and the Ratio [1] was 2.5, the EC50 (Androgen receptor) was 1560 nM and the IC50 [2] was over 40000 nM. The IC50 (LNCaP) was 643 nM.

For `Cc1cn(C2=CCC3C4CC=C5C[C@@H](NC(=O)c6ccc(F)cc6)CC[C@]5(C)C4CC[C@]23C)cn1` (some centres not stated), the Activity (LNCaP/AR) was “Active”, the Activity [3] was “Dose-Dependent Effect” and the Activity [4] was “Dose-Dependent Effect”. The Activity [5] was 52%, the Activity [6] was “inactive” and the Activity [7] was “Dose-Dependent Effect”. For the same molecule, the Activity [8] was 68%, the Activity [9] was “Dose-Dependent Effect” and the Activity [10] was 40%. The Activity (22Rv1) was “Active”, the Activity [11] was “Active” and the Activity (Mus musculus) was “Active”. The Activity (LNCaP C4-2B) was “inactive”.

`COc1cn(C2=CCC3C4CC=C5C[C@@H](NC(=O)c6ccnnc6)CC[C@]5(C)C4CC[C@]23C)cn1` (some centres not stated) showed a Ratio [1] of 2.5, an EC50 (Androgen receptor) of 3880 nM and an IC50 [2] of 856000 nM. It also gave an IC50 (LNCaP) of 475 nM.

For `C[C@]12CC[C@H](NC(=O)c3ccnnc3)CC1=CCC1C2CC[C@]2(C)C(n3cnc(Cl)c3)=CCC12` (some centres not stated), the IC50 [2] was 24600 nM and the IC50 (LNCaP) was 608 nM.

Work on `CCc1cn(C2=CCC3C4CC=C5C[C@@H](NC(=O)c6ccncc6)CC[C@]5(C)C4CC[C@]23C)cn1` (some centres not stated) yielded a Ratio [1] of 2.5, an EC50 (Androgen receptor) of 3210 nM and an IC50 [2] of 3580 nM. It also gave an IC50 (LNCaP) of 356 nM.

In the case of `Cc1cn(C2=CCC3C4CC=C5C[C@@H](NC(=O)c6ccncc6F)CC[C@]5(C)C4CC[C@]23C)cn1` (some centres not stated), the Ratio [1] is reported as 2.5, the EC50 (Androgen receptor) is reported as 5720 nM and the IC50 [2] is reported as over 40000 nM. The IC50 (LNCaP) was 752 nM.

For `C[C@]12CC[C@H](NC(=O)c3ccnnc3)CC1=CCC1C2CC[C@]2(C)C(n3cnc(F)c3)=CCC12` (some centres not stated), the IC50 (LNCaP) was 2350 nM.

Work on `Cc1cn(C2=CCC3C4CC=C5C[C@@H](NS(=O)(=O)c6cccnc6)CC[C@]5(C)C4CC[C@]23C)cn1` (some centres not stated) yielded an IC50 (LNCaP) of 2100 nM.

Molecule `C[C@]12CC[C@H](NC(=O)c3ccnnc3)CC1=CCC1C2CC[C@]2(C)C(n3cnc([N+](=O)[O-])c3)=CCC12` (some centres not stated) has a Ratio [1] of 2.5, an EC50 (Androgen receptor) of 3310 nM and an IC50 [2] of over 40000 nM. For the same molecule, the IC50 (LNCaP) was 418 nM.
